{"source": "patent US20100305658A1", "about": "(priority 2004, published 2010)", "key": {"[1]": {"system": "striatal dopamine efflux (dopamine oxidation current)", "experiment": "STN stimulation-evoked striatal dopamine efflux, constant potential amperometry, effects of selective reuptake inhibitors", "assay_type": "in vivo, rat", "settings": "post-drug, 20 mg/kg systemic injection, STN stimulation 15 pulses, 50 Hz, 300 μA"}, "[2]": {"system": "glutamate release in ferret thalamic slices (A1 lamina of the LGN)", "experiment": "HFS-induced glutamate release in thalamic slices measured with a glutamate sensor", "assay_type": "cell-based"}, "GABAA receptors": {"system": "GABAA receptors", "experiment": "Extracellular recording of spontaneous spindle waves in LGN slice with GABAA receptors blocked", "assay_type": "cell-based", "settings": "20 μM in bath; ferret LGN slice; n=5 slices", "experimental": "For the preparation of slices, 3-4 month old male or female ferrets (muftela putoriouf furo; Marshall Farms; North Rose, New York) were deeply anesthetized with sodium pentobarbital (30-40 mg/kg) and killed by decapitation. The forebrain was rapidly removed, and the hemispheres were separated with a midline incision. Four hundred micron thick slices were cut using a vibratome (Ted Pella, Inc.) in the sagittal plane. During preparation of slices, the tissue was placed in a solution (5° C.) in which NaCl was replaced with sucrose while maintaining an osmolarity of 307 mOsm to increase tissue viability. […]\nIntracellular recording electrodes were formed on a Sutter Instruments P-2000 laser micropipette puller from medium-walled glass (WPI, 1B100F). […] The data was analyzed using Chart (eDaq) on a Pentium style computer and figures were drawn using Core1DRAW (Corel).\nTo test the functional effects of HFS-mediated glutamate release, simultaneous intracellular and extracellular recordings were made in the ferret lateral geniculate nucleus (LGN) in vitro slice preparation, which generates spontaneous spindle waves (FIG. 14; n=21). Spindle activity was recorded from a population of neurons (extracellular electrode), and the electrophysiological activity associated with the spindle activity was recorded from single neurons within that population. […]"}}}
{"compound": "CN1Cc2c(N)cccc2C(c2ccccc2)C1", "note": "(stereo not shown) [nomifensine]", "values": [{"measurement": "recovery of dopamine efflux to prestimulation baseline levels (total duration)", "setting": "[1]", "result": "2035 ± 132", "unit": "ms"}, {"measurement": "STN electrical stimulation-evoked dopamine oxidation current (amplitude)", "setting": "[1]; anaesthetized rat striatum", "result": "765±38", "unit": "pA"}]}
{"compound": "NC1=N[C@H](O)[C@H]2[C@H]3O[C@]4(O)O[C@@H]([C@@H](O)[C@@]2(N1)[C@@H]4O)[C@]3(O)CO", "note": "[tetrodotoxin]", "values": [{"measurement": "block of glutamate release induced by HFS", "setting": "[2]", "result": "failed to block"}]}
{"compound": "picrotoxin", "values": [{"measurement": "effect on spontaneous spindle waves", "setting": "GABAA receptors", "result": "transformed into events that resemble absence-seizure-like activity"}]}
